From ChEMBL document CHEMBL1201862, “PubChem BioAssay data set” (2004) come the findings set out here.

“And” between values parts separate entries of the source, which are not always exact repeats. Equal values may be shown once. The source made the active and inactive calls.

Assay [1] addresses Serine/threonine-protein kinase PLK3 (Homo sapiens, UniProt Q9H4B4). It is filed as functional.
The target in assay [2] is Protein kinase C delta type (Homo sapiens, UniProt Q05655). The class given is functional.
Assay [3] deals with MAP kinase-activated protein kinase 5 (Homo sapiens, UniProt Q8IW41). It is filed as functional.
The target in assay [4] is Cell division cycle 7-related protein kinase (Homo sapiens, UniProt O00311). The class given is functional.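 Also: value obtained from a kinome-wide kinase panel.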
Assay [5] has as its target High affinity nerve growth factor receptor (Homo sapiens, UniProt P04629). The class given is functional.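 Also: NTRK1 tested as one member of a kinome-wide profiling panel.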
Assay [6] addresses Serine/threonine-protein kinase pim-3 (Homo sapiens, UniProt Q86V86). It is filed as functional.
The next assay concerns the target Ephrin type-A receptor 2 (Homo sapiens, UniProt P29317). It is filed as functional.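 Also: EPHA2 tested as one member of a kinome-wide kinase panel.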
Assay [7] concerns the target Mitogen-activated protein kinase kinase kinase kinase 5 (Homo sapiens, UniProt Q9Y4K4). It is filed as functional.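 Also: measured as one member of a kinome-spanning kinase panel.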
In assay [8] the target is Vascular endothelial growth factor receptor 1 (Homo sapiens, UniProt P17948). It is filed as functional.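 Also: measured within a kinome-wide profiling panel, FLT1 as the panel member.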
Chain of Vascular endothelial growth factor receptor 1 (P17948 whole entry): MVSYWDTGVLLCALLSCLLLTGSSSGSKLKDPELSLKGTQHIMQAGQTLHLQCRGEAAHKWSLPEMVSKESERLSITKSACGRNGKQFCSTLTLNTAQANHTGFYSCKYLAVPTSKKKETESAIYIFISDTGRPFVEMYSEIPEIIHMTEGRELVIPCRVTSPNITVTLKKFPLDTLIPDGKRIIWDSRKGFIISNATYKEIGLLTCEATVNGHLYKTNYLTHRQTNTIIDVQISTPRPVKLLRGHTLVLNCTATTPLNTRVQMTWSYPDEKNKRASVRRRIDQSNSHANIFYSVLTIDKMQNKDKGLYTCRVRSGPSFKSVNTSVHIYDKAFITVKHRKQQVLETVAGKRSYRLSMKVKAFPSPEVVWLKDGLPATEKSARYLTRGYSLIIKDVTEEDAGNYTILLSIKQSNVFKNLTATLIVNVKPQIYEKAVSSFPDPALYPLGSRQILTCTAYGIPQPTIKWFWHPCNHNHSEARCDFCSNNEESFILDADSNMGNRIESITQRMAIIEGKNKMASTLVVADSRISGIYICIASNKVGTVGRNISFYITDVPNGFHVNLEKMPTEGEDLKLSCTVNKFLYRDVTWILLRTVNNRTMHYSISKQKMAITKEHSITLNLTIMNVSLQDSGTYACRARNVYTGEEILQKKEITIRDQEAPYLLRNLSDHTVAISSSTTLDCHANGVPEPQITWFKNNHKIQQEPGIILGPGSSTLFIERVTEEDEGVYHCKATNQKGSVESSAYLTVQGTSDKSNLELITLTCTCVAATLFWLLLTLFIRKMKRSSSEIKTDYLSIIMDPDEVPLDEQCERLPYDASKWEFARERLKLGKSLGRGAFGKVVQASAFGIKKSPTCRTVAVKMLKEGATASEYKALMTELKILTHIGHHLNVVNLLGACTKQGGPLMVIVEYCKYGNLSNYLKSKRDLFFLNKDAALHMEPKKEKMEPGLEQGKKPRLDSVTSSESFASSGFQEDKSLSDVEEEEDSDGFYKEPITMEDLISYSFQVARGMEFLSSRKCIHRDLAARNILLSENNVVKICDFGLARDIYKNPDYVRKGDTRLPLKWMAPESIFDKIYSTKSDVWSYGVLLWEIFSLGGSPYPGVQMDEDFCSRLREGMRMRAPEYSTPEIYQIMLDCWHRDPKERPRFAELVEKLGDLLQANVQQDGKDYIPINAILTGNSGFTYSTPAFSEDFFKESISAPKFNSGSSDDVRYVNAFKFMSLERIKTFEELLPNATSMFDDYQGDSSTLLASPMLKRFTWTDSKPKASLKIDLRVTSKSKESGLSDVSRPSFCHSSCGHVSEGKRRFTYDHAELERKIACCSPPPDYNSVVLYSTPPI
In assay [9] the target is Dual specificity protein kinase CLK4 (Homo sapiens, UniProt Q9HAZ1). It is filed as functional.
In assay [10] the target is Lymphokine-activated killer T-cell-originated protein kinase (Homo sapiens, UniProt Q96KB5). The class given is functional.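 Also: value comes from a kinase panel screen in which TOPK was one of the panel members.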
Chain of Lymphokine-activated killer T-cell-originated protein kinase (Q96KB5 whole entry): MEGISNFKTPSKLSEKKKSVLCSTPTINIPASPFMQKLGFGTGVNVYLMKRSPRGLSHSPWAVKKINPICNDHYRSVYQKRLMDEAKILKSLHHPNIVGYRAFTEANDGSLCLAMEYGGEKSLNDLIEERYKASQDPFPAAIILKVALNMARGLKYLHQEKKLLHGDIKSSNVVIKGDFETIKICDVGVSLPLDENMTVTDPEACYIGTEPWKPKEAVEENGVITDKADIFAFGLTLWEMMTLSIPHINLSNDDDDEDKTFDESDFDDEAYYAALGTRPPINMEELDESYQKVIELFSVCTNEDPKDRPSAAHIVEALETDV
Assay [11] deals with Mitogen-activated protein kinase kinase kinase kinase 4 (Homo sapiens, UniProt O95819). The class given is functional.
Chain of Mitogen-activated protein kinase kinase kinase kinase 4 (O95819 whole entry): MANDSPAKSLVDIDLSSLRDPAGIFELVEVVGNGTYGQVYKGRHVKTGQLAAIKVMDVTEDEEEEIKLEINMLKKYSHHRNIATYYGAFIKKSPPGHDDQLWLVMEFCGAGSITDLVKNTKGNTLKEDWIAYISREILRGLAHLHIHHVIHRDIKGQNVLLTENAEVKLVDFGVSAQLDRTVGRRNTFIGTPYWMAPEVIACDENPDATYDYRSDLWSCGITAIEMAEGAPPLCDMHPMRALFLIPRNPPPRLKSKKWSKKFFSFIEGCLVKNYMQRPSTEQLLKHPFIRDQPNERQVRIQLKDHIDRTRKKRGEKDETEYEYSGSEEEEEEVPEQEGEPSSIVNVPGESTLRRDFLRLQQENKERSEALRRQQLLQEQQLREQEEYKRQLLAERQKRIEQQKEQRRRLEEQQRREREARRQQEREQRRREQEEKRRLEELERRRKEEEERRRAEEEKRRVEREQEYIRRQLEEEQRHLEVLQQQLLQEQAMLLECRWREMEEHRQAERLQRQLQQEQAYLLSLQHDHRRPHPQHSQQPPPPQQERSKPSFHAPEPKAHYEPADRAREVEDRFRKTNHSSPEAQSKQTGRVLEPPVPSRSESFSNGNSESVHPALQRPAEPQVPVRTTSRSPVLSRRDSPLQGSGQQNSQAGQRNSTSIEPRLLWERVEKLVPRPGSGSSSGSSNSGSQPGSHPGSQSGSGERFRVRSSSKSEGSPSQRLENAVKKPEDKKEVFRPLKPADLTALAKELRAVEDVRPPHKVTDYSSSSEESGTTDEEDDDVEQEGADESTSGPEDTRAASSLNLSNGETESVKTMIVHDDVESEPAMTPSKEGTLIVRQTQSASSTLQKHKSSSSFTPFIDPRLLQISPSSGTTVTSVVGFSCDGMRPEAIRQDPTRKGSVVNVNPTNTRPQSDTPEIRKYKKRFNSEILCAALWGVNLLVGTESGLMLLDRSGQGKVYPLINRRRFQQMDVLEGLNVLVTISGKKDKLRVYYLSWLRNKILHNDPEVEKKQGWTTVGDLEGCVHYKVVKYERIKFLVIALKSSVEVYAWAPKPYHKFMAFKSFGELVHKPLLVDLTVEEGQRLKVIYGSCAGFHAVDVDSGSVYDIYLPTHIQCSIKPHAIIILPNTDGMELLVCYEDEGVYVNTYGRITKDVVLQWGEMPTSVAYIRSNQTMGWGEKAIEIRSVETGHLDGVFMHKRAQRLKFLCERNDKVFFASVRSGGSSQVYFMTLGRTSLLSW
The target of assay [12] is Macrophage colony-stimulating factor 1 receptor (Homo sapiens, UniProt P07333). The class given is functional.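 Also: value comes from the Navigating the Kinome screening panel, CSF1R member.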
Assay [13] deals with Tyrosine-protein kinase FRK (Homo sapiens, UniProt P42685). The class given is functional.
Chain of Tyrosine-protein kinase FRK (P42685 whole entry): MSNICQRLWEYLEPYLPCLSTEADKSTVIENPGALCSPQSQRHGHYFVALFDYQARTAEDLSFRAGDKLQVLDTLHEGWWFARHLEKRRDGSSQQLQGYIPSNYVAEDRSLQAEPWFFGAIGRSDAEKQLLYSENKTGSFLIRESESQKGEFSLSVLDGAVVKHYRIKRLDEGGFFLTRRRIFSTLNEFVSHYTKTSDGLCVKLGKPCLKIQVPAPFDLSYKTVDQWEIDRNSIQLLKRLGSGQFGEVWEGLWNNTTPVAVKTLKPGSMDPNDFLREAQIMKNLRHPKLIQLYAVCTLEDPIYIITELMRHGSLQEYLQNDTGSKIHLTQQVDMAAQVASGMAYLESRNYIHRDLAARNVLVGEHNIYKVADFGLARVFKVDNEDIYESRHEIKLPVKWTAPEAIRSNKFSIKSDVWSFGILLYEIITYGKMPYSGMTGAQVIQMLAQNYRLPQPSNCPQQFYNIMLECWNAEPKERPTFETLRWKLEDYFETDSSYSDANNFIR
The nature of assay [14]: viability of PTEN-deleted HCT116 cells – cell-based, HCT116 PTEN knockout, dose response (AID 1047).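 Also: HCT116 colon tumor cells with PTEN knocked out; cells exposed to compound for 60 hours before readout; potency for loss of cell viability measured by luminescence.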 The class given is functional.
Assay [15] has as its target Phosphoethanolamine/phosphocholine phosphatase (Homo sapiens, UniProt Q8TCT1). Put plainly: SAR assay for compounds that inhibit PHOSPHO1. [Related pubchem assays (depositor defined):AID1545, AID1565, AID1574].
Assay [16] deals with T1, Rac GTPase-activating protein 1 (Homo sapiens, UniProt Q9H0H5).
T1 sequence (Q9H0H5 whole entry): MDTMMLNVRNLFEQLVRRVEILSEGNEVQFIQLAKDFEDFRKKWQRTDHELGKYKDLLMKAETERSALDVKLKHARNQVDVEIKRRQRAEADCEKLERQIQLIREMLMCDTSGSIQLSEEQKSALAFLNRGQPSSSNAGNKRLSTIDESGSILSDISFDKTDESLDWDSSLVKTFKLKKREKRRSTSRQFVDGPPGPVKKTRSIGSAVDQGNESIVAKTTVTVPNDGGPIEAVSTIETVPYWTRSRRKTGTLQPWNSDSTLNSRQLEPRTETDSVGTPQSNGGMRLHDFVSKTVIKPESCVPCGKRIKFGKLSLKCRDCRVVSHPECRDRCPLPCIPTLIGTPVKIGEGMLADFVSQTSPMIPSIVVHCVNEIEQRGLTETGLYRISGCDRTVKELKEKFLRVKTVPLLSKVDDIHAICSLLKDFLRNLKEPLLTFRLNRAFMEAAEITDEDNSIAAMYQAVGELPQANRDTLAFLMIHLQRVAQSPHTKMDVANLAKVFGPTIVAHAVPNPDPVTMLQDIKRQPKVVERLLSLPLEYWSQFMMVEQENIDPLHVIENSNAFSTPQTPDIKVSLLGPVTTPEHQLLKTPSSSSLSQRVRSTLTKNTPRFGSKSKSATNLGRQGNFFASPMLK
Nature of the assay: blockers of MgcRacGAP-driven Rac1 GTP hydrolysis – biochemical, ADP Hunter fluorescence, primary and confirmatory, confirmation (AID 624330). The class given is functional.

Assay [17] deals with Induced myeloid leukemia cell differentiation protein Mcl-1 (Homo sapiens, UniProt Q07820). It is filed as functional.
Chain of Induced myeloid leukemia cell differentiation protein Mcl-1 (Q07820 whole entry): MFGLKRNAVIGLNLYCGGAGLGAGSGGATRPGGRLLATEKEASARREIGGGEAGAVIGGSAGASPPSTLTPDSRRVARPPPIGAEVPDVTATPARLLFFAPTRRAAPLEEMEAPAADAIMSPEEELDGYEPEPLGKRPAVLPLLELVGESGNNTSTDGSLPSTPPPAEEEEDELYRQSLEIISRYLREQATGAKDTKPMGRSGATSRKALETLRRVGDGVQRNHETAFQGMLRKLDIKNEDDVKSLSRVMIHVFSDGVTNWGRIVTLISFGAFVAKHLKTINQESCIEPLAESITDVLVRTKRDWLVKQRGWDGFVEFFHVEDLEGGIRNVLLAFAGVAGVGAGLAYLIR
The target of assay [18] is T2, Sentrin-specific protease 7 (Homo sapiens, UniProt Q9BQF6).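 Also: Luminescence-based dose-response confirmation of ultra-high-throughput screening hits, measuring inhibition of SENP7.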
T2 sequence (Q9BQF6 whole entry): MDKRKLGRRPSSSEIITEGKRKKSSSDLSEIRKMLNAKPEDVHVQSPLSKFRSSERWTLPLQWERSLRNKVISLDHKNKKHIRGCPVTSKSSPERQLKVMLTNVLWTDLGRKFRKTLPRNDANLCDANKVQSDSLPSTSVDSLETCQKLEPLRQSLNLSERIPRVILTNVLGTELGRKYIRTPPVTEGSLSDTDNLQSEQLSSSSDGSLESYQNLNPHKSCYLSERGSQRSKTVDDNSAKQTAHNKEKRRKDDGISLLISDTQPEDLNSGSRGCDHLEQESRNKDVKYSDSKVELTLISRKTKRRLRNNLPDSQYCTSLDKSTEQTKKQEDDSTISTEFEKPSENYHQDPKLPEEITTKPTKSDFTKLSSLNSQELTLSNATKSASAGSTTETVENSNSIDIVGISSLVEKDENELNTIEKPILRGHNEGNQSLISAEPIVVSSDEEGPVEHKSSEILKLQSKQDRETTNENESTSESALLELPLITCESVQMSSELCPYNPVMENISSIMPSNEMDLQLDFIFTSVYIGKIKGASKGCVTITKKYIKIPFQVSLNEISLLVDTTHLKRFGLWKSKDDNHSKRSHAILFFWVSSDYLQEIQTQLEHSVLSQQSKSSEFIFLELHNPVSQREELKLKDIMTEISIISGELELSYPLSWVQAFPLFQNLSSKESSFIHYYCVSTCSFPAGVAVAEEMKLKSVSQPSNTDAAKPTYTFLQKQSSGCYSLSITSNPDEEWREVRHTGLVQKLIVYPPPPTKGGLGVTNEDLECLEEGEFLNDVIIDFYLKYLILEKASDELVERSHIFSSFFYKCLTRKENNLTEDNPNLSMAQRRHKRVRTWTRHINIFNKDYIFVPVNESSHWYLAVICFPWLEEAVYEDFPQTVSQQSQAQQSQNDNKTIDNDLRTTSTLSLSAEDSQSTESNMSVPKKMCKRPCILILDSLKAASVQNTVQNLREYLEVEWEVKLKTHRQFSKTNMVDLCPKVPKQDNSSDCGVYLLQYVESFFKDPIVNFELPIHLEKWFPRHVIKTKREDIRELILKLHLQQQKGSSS
It is filed as functional.

The next assay relates to Jurkat. Nature of the assay: SAR Analysis of small molecule inhibitors of T-cell specific antigen receptor-induced NF-kB activation in a Jurkat cell line using a luminescence assay. [Related pubchem assays (depositor defined):AID435003, AID435012, AID465]. Conditions: Homo sapiens. The class given is functional, cell-based.

Chain of Phosphoethanolamine/phosphocholine phosphatase (Q8TCT1 whole entry): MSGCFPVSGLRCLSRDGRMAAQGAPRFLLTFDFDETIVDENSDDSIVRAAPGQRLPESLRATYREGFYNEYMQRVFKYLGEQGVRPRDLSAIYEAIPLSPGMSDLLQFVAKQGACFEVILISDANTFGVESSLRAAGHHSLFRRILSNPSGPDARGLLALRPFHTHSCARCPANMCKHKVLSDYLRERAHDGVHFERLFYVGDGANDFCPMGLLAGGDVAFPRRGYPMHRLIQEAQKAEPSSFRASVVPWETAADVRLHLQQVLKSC
Chain of High affinity nerve growth factor receptor (P04629 whole entry): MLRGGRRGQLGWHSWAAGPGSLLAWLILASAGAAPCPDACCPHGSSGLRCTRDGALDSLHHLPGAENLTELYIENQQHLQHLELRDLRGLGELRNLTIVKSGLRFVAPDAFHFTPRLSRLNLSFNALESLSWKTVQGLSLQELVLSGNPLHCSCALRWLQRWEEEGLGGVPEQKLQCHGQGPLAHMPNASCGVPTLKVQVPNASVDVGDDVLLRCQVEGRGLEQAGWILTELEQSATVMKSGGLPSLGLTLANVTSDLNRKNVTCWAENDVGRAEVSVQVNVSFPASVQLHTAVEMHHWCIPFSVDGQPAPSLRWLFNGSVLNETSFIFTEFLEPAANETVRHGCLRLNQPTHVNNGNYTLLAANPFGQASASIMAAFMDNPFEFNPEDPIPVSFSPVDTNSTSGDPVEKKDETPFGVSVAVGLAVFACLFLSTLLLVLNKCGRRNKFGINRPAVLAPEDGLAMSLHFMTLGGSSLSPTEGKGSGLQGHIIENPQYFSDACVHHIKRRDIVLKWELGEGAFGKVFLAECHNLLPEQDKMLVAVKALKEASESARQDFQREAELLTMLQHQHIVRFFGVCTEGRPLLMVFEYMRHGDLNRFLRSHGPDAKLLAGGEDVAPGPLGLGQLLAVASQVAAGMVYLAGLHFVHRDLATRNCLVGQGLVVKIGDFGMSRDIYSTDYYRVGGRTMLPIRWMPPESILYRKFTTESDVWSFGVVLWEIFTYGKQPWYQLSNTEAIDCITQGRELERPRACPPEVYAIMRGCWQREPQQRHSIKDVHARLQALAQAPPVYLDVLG

For `Cc1cccc(NC(=O)Nc2ccc3c(c2)CCc2sc4ncnc(N)c4c2-3)c1`, the inhibition constant Ki – broadly, a dissociation constant, usually derived from enzyme kinetics or from competition with a known ligand – was 2000 nM (active) in assay [1]; 7940 nM (active) in [2]; > 1580 nM (inactive) in assay [3]; > 1260 nM (inactive) in assay [4]; 1260 nM (active) in [5]; 5010 nM (active) in [6]. The Ki on Ephrin type-A receptor 2 is 31.6 nM (active); in [7], 501 nM (active); in [8] it was 6.31 nM (active); in assay [9] it was 126 nM (active); in assay [10] it was 3160 nM (active); in assay [11] it was 2510 nM (active). Further, the results for the Ki in [12] and in assay [13] were > 2510 nM (inactive) and 200 nM (active), respectively.
With `Cc1ccc(-n2sc3ccccc3c2=O)cc1`, the 50% effective concentration (EC50) (as a rule, the concentration giving half of the maximal effect) in assay [14] is 31100 nM (active). Further, the IC50 (in general, the midpoint of a concentration-inhibition curve) in assay [15] is 2.28 µM (inactive) and 1.46 µM (inactive); in assay [16] it was 87400 nM (active).
With `N/C(=N\N=C/c1ccc(-c2ccc(O)c(C(=O)O)c2)o1)N[N+](=O)[O-]`, the half-inhibitory concentration (IC50) in assay [17] is 3860 nM (active).
In the case of `CC(=O)N(/N=C1\Sc2ccccc2C1=O)c1ccccc1C`, the IC50 in assay [18] is 3790 nM (active).
For `CCCC(=O)NC(c1ccc(Cl)cc1)c1ccc2cccnc2c1O` (stereo not given), the IC50 in the assay with Jurkat was 4130 nM (active).
